Experimental data from publication PMC10525516, “Novel NADPH Oxidase-2 Inhibitors as Potential Anti-Inflammatory and Neuroprotective Agents” (Antioxidants, 2023).
Structures can show the parent of a compound that is named as a salt.

How the values were obtained:
Nox2 [1] = biological target: T1, Nox2 (Homo sapiens, UniProt P04839); experiment: CBA probe assay of H2O2 production by PMA-activated dHL60 cells; type: cell-based; details: for Nox2 inhibitory activity: tested at concentrations of up to 50 µM; for Nox2 inhibitory potency (SAR statement): replacement of the indole moiety, data not shown; for IC50: PMA (1 µM)-activated dHL60 cells, 30 min preincubation with inhibitor, read-out: IC50, inhibition of H2O2 production, CBA Assay
T1 construct: endogenous in cells
T1 sequence (P04839 2-570 limits assumed): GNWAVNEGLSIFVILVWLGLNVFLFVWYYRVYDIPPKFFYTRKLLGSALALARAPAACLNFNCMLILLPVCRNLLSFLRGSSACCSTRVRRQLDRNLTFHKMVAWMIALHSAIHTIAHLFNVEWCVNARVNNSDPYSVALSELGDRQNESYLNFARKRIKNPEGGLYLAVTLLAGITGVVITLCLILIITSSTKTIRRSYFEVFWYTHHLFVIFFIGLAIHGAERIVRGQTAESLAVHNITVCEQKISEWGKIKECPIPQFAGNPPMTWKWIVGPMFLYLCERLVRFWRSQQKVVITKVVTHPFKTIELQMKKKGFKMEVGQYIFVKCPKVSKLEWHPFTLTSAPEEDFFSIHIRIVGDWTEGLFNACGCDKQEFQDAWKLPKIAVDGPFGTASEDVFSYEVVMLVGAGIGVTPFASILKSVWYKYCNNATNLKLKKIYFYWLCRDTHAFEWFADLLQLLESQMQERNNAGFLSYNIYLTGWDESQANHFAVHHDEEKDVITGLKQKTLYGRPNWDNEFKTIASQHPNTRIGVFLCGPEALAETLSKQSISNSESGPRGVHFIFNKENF
T1 sequence (P13498 2-195 partner limits assumed): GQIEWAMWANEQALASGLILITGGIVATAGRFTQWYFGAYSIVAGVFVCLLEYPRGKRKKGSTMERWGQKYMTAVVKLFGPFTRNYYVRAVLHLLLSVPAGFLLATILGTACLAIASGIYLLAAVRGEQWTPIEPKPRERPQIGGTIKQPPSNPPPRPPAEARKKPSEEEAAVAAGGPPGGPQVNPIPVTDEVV
Experimental: (§1) Human promyelocytic leukemia HL60 cells (Sigma-Aldrich) were grown in RPMI 1640 medium (Gibco, 11875-093, Billings, MT, USA) supplemented with 10% FBS (Omega Scientific (Tarzana, CA, USA)), 100 units/mL penicillin, and 100 µg/mL streptomycin, and were incubated at 37 °C and 5% carbon dioxide (CO2). For differentiation to neutrophil-like cells, HL60 cells were pelleted and resuspended in fresh media containing 1 µM of all trans-retinoic acid and incubated for four to five days. Nox2 activation was achieved by treating differentiated HL60 (dHL60) cells with 1 µM PMA [24]. Human leukemia monocytic cells, THP-1, were grown in RPMI 1640 medium + GlutaMAX^TM (Gibco, 61870-036) and supplemented with 10% FBS, 10 mM HEPES, and 1 mM sodium pyruvate and incubated at 37 °C in 5% CO2 environment. To induce differentiation into macrophages, THP-1 cells were treated with PMA (100 ng/mL) for 48 h. To test the efficacy of Nox2 inhibitors, treatment was performed with or without the inhibitor, along with PMA [35].
(§2) Plate reader-based analyses of the production of O2^•− and H2O2 by PMA-activated dHL60 cells were performed according to a published protocol with minor modifications. Briefly, for the treatment of dHL60 cells with different concentrations of the compounds, 0.5 mL deep-well 96-well plates were used to dispense and store aliquots of their 10 mM DMSO solutions. Using a Multidrop™ PicoIT dispenser (Thermo Scientific), different volumes of the solutions of candidate Nox inhibitors (10 or 50 mM in DMSO) were injected into the bottom of 0.5 mL V-bottom 96-well plates; then, they were sealed with aluminum foil (VWR, Batavia, IL, USA) using a semiautomatic thermal sealer (BT LabSystems, St. Louis, MO, USA) and stored at −20 °C to reduce freeze-thawing the solutions. The plates with inhibitors were allowed to come to room temperature before the addition of the cell suspensions. dHL60 cells were pelleted and resuspended in HBSS (Invitrogen, Waltham, MA, USA) supplemented with 25 mM HEPES (pH 7.4) and 100 µM DTPA to a cell density of 2 × 10^5 cells/mL. dHL60 cells were added to the V-bottom plates at a volume of 210 µL/well. Next, cells were incubated with inhibitors for 30 min at 37 °C in a CO2-free incubator under ambient oxygen and then transferred to black, clear-bottom 96-well plates (200 µL/well) after incubation. Freshly prepared PMA plus probe solutions in HBSS (5× concentrated, 50 µL/well) included PMA (5 µM) with CBA (500 µM) or with Amplex Red (250 µM) plus HRP (0.5 U/mL) for H2O2 detection, or with HE (50 µM) plus DNA (0.5 mg/mL) for O2^•− detection. Once probes + PMA were added, plates were sealed with sealing film and immediately placed in the pre-warmed plate readers (37 °C). Fluorescence intensities were monitored kinetically from the bottom of the plates every 1.3 min for a period of 2 h using Beckman Coulter (Brea, CA, USA) DTX880 and BMG Labtech (Ortenberg, Germany) FLUOstar Omega plate readers. DMSO alone and DPI (10 µM) were used as negative and positive controls, respectively. […] The IC50 values were determined using at least five independent measurements, each consisting of technical quadruplicates per concentration.

THP-1 cells = experiment: qRT-PCR mRNA expression of Nox2 subunits and inflammatory mediators in PMA-treated THP-1 cells; type: cell-based, human; details: 3 µM, 48 h with PMA 100 ng/mL
Experimental: as §1
mRNA expression analysis was performed as previously described. Briefly, THP-1 cells were treated with PMA (100 ng/mL) with or without the Nox2 inhibitor TG15-132 (3.0 µM) for 48 h. RNA extraction was done using the Quick-RNA miniprep kit (cat. no. R1055, Zymo Research, Irvine, CA, USA) and followed by cDNA synthesis using the qScript cDNA superMix kit (cat. no. 84035, Quantabio, Beverly, MA, USA). Quantitative real-time PCR was performed using specific primers designed to amplify target genes (Table 2). Data obtained were analyzed and converted into fold changes in expression with respect to vehicle-treated cells.

dHL60 cells = experiment: Cell Titer Glo 2.0 cytotoxicity (ATP) assay in PMA-stimulated dHL60 cells; type: cell-based, human; details: for IC50: Homo sapiens, Cell Titer Glo 2.0, PMA-stimulated dHL60 cells, 2.5 h with inhibitor, unit not printed in Table 3, taken from text, read-out: IC50, Viability Assay
Experimental: The cytotoxicity of the inhibitors was tested by measuring the amount of ATP in the wells containing PMA-stimulated dHL60 cells and the candidate inhibitors. Cells were prepared as described for the plate reader-based measurements for H2O2, except that the cells were maintained with the inhibitors in a CO2-free incubator at 37 °C for 2.5 h to mirror the conditions during the fluorescence-based monitoring of H2O2 described above. After incubation, cells (100 µL/well) were transferred to white 96-well plates (Greiner, Kremsmünster, Austria), and the total cellular ATP amount was determined using the Cell Titer Glo 2.0 (Promega) cytotoxicity assay (100 µL/well) by measuring the luminescence intensity using a Beckman Coulter DTX880 plate reader.

Nox2 [2] = biological target: T1, Nox2; experiment: Amplex Red/HRP assay of H2O2 production by PMA-activated dHL60 cells; type: cell-based; details: for IC50: PMA (1 µM)-activated dHL60 cells, 30 min preincubation, read-out: IC50, inhibition of H2O2 production, Amplex Red Assay
Experimental: as §1, §2

[3] = In vivo pharmacokinetics / brain penetration, species not specified (rodent models); details: brain; species and dose not stated; data not shown; read-out: brain-to-plasma ratio
Excerpt: Rapid metabolism and the inability to cross the BBB represent major obstacles in the application of bioactive agents in neurodegenerative diseases. Based on the premise that Nox2 plays a major role in oxidative damage and exacerbates neurodegenerative diseases, we envision applications of brain-permeable Nox2 inhibitors in mechanistic studies in vivo, and, long-term, in the development of novel therapeutic strategies. Therefore, we performed in vivo pharmacokinetics studies to determine the time profile of plasma concentration and accumulation of TG15-132 in the brain tissue of Sprague Dawley rats and C57BL6 mice.

[4] = Short-term (seven day) in vivo toxicity in mice; design: species or system C57BL/6 mice; details: 20 mg/kg, seven days, Figure 9B
Experimental: All animal experiments were performed according to protocols and guidelines approved by the Emory University Animal Care and Use Committee. The in vivo toxicity of TG15-132 was assessed using C57BL/6 mice (cat. no. 027, Charles River Laboratories, Wilmington, MA, USA). Animals were injected daily (i.p.) with saline, vehicle (DMSO 10%, PEG400 30%, water 60%), or 20 mg/kg of TG15-132 in vehicle for seven days, with body weight recorded each day. At the end of treatment, organs were harvested to study organ weight loss, and blood was collected from each mouse via cardiac puncture, and serum was isolated. Serum was analyzed for kidney function using blood urea nitrogen and creatinine, liver function using alanine amino transferase, and tissue damage using lactate dehydrogenase.

Nox2 [5] = test system: Nox2; design: method as in PMID 22726689; details: library of >200,000 compounds; cited from earlier work

COc1cc(C(C)=O)cc(-c2cc(C(C)=O)cc(OC)c2O)c1O [diapocynin, reference compound]
Nox2 inhibitory activity (Nox2 [1]): did not show Nox2 inhibitory activity

COc1cc(C(C)=O)ccc1O [apocynin, reference compound]
Nox2 inhibitory activity (Nox2 [1]): did not show Nox2 inhibitory activity

CN(C)CCCn1c(SCCc2ccccn2)nc2ccc(Cl)cc2c1=O [TG15-124]
Nox2 inhibitory potency (SAR statement) (Nox2 [1]): significant loss in Nox2 inhibitory potency

CC(C)n1cc(-c2ccc3c(c2)N(C)CC3)c2c(NS(=O)(=O)c3ccn(C)n3)ccnc21 [GSK 2795039, reference compound]
expression of TNF compared with PMA-treated cells (Figure 7B) (THP-1 cells): increased
mRNA expression vs PMA-treated cells, additional experiment (Figure 7B) (THP-1 cells): did not reduce the expression of Nox2 components and inflammatory mediators

CN(C)CCCn1c(SCCc2c[nH]c3ccccc23)nc2ccc(Cl)cc2c1=O [TG15-139]
IC50 (dHL60 cells): 14.1 ± 1.7 µM
cell viability at concentrations showing Nox2 inhibitory potency (dHL60 cells; dHL60 cells, Figure 3D,E): no decrease in cell viability
IC50 (Nox2 [2]): 4.9 ± 2.3 µM
Kp [3]: > 23
IC50 (Nox2 [1]): 3.1 ± 1.4 µM

CN(C)CCCn1c(SCCc2c[nH]c3ccccc23)nc2ccc(F)cc2c1=O [TG15-132•HCl]
liver or kidney function, tissue damage (serum BUN, CREAT, ALT, LDH) [4]: did not lead to a negative effect

CC(C)N1CCN(CCCn2c(SCCc3c[nH]c4ccccc34)nc3ccc(F)cc3c2=O)CC1 [TG17-57]
IC50 (dHL60 cells): 20.7 ± 5 µM
IC50 (Nox2 [2]): 9.2 ± 0.4 µM
IC50 (Nox2 [1]): 7 ± 2.8 µM

CN(C)CCCn1c(SCCc2ccccn2)nc2ccc(F)cc2c1=O [TG15-131]
Nox2 inhibitory potency (SAR statement) (Nox2 [1]): significant loss in Nox2 inhibitory potency

CC(C)N1CCN(C(=O)CCCn2c(SCCc3c[nH]c4ccccc34)nc3ccc(F)cc3c2=O)CC1 [TG15-293]
IC50 (dHL60 cells): 38.3 ± 7.5 µM
IC50 (Nox2 [2]): 67.8 ± 2.6 µM
fold less potency than TG17-57 in the Amplex Red assay (Nox2 [2]; relative to TG17-57): about 7 fold
IC50 (Nox2 [1]): 23.6 ± 18.1 µM
fold less potency than TG17-57 in the CBA assay (Nox2 [1]; relative to TG17-57): about 3 fold

c1ccc2c(c1)[I+]c1ccccc1-2 [DPI, Diphenyleneiodonium chloride, reference compound]
cytotoxic effects (dHL60 cells; 10 µM, Cell Titer Glo 2.0): did not show any cytotoxic effects
inhibitory activity (positive control) (Nox2 [1]; 10 µM): consistently showed inhibitory activity

CN(C)CCCSc1nc2ccc(F)cc2c(=O)n1CCCN(C)C [TG17-55]
Nox2 inhibitory potency (SAR statement) (Nox2 [1]): eliminated potency

CCN1CCN(CCCn2c(SCCc3c[nH]c4ccccc34)nc3ccc(F)cc3c2=O)CC1 [TG17-56]
IC50 (dHL60 cells): 16.7 ± 2.5 µM
IC50 (Nox2 [2]): 7.8 ± 4 µM
IC50 (Nox2 [1]): 5.3 ± 0.6 µM

O=c1c2ccccc2[se]n1-c1ccccc1 [ebselen]
Nox2 inhibition in cell-free HTS (Nox2 [5]): modest Nox2 inhibitors
